Results from patent US5965434A, “Amphipathic PH sensitive compounds and delivery systems for delivering biologically active compounds” (priority 1994, dated 1999).

Key:
[1] = background; cited from earlier work
[2] = pK by differential titration; details: 0.5% triton x-100
Method: 4-5 μmoles of compounds 1, 4, 5, 6 or 8 in a chloroform solution were dried in separate 1.5 ml microcentrifuge tubes under a vacuum overnight. The dried compounds were dissolved in […] of a 0.5% water solution of Triton X-100, pH 3.5. A 20 mM NaOH solution was added to each tube using a Dilutor 401 (Gilson Co.) and the pH was monitored using a Beckman .phi. 72 pH meter. The pKa's of the compounds were determined from differential titration curves. The transfections of the 3T3 cells were done with liposome preparations containing Dioleoylphosphatidylcholine as described above.

3T3 cells = assay: Transfection of plasmid pBS.RSVLux into 3T3 cells, luciferase activity; format: cell-based, mouse; details: Table 13
Method: Liposomes were prepared by mixing chloroform solutions of the different lipids in microcentrifuge tubes with a 1.5 ml and removing the chloroform by vacuum to produce the dried lipid films. Tubes were placed under vacuum overnight to remove solvent traces. The amounts of cationic lipids in all cases were 1.34 mmol/ml with different amounts of other lipids as specified. One ml of sterile 10 mM HEPES buffer, pH 7.8, was added, and the tubes were sealed and vortexed for 1 min at room temperature and sonicated to obtain a clear emulsion.
The following cell lines were used: mouse 3T3 fibroblasts, COS cells (monkey kidney cell line transformed with the SV40 T ag), HeLa (human carcinoma cells), HepG2 (human hepatoma cell), 293 (monkey kidney cell line transformed with the adenovirus E1 gene ) were maintained in Dulbeco's Modified MEM media supplemented with 10% fetal calf serum. All cultures were maintained in a humidified atmosphere of 5% CO2 in air at 37° C. The cells were seeded in a 6-well plate (35 mm culture dishes) or a 12 well-plate (25 mm culture dishes) 24 h before the transfection at 70% confluence. Before transfection, the cells was washed once with Opti-MEM. In case of the 35 mm culture dishes, four μg of plasmid DNA (containing the luciferase or β-galactosidase reporter genes described below) in 0.75 ml of Opti-MEM was mixed with various amounts of liposomes in 0.75 ml of Opti-MEM. In case of the 25 mm culture dishes, one or two μg DNA in 400 μl of Opti-MEM was mixed with 400 μl of liposomes in 400 μl of Opti-MEM. The mixtures were incubated for 30 min at room temperature prior to being added to the cells in the culture dish. […]
The firefly luciferase and E. coli β-galactosidase reporter genes were used to determine the efficiency of DNA transfer quantitatively. […]
For determination of luciferase activity, cells were lysed by the addition of 100 ml for 25 mm plates and 200 μl for 35 mm plates of lysis buffer (0.1% Triton X-100, 0.1M K-phosphate, 1 mM DTT, pH 7.8). 20 μl of the cellular extract were analyzed for luciferase activity. […]

[3] = background; cited from earlier work; remark: listed apart in the source
[4] = Dioleoylphosphatidylcholine content 1:1

| SMILES | Cytotoxicity [1] | pKa [2] | other results |
| --- | --- | --- | --- |
| CCCCCCCCCCCCCCCC[N+](C)(C)C.[Br-] [CTAB, cetyltrimethylammonium bromide] | significant cytotoxicity | – | – |
| CC(C)CCC[C@@H](C)[C@H]1CC[C@H]2[C@@H]3CC=C4C[C@@H](OC(=O)CCC[N+](C)(C)C)CC[C@]4(C)[C@H]3CC[C@]12C [ChoTB, cholesteryl (4'-trimethylammonio)butanoate] | no evidence of reduced cytotoxicity | – | – |
| CCCCCCCCCCCCCCCC(=O)OCC(CSc1nccn1C)OC(=O)CCCCCCCCCCCCCCC (centres unmarked) [Compound 4] | – | < 3.5 | – |
| CC(C)CCC[C@@H](C)[C@H]1CC[C@H]2[C@@H]3CC=C4C[C@@H](SSCCN)CC[C@]4(C)[C@H]3CC[C@]12C [Compound 5] | – | 6.8 | Relative Transfection Efficiency (Lipofectin = 1.0) (3T3 cells; Dioleoylphosphatidylcholine content 1:2): 0.84 |
| CC(C)CCC[C@@H](C)[C@H]1CC[C@H]2[C@@H]3CC=C4C[C@@H](OC(=O)NCCCn5ccnc5)CC[C@]4(C)[C@H]3CC[C@]12C [Compound 6] | – | 6 | Relative Transfection Efficiency (Lipofectin = 1.0) (3T3 cells; [4]): 0.23 |
| CCCCCCCCCCCCCCCC(=O)OCC(CNc1ccncc1)OC(=O)CCCCCCCCCCCCCCC (centres unmarked) [Compound 8] | – | 5.3 | Relative Transfection Efficiency (Lipofectin = 1.0) (3T3 cells; [4]): 7.68 |
| CCCCCCCC/C=C\CCCCCCCC(=O)OC[C@H](COC(=O)CCC(=O)OCC[N+](C)(C)C)OC(=O)CCCCCCC/C=C\CCCCCCCC [DOSC, 1,2-dioleoyl-3-succinyl-sn-glycerol choline ester] | no evidence of reduced cytotoxicity | – | – |
| CCCCCCCC/C=C\CCCCCCCC(=O)OCC(C[N+](C)(C)C)OC(=O)CCCCCCC/C=C\CCCCCCCC (centres unmarked) [DOTAP, 1,2-Bis(oleoyloxy)-3-(4'-trimethylammonio)propane] | no evidence of reduced cytotoxicity | – | Inhibition of transfection by serum [3]: inhibits transfection to some extent |
| CCCCCCCC/C=C\CCCCCCCC(=O)OC[C@H](COC(=O)CCC[N+](C)(C)C)OC(=O)CCCCCCC/C=C\CCCCCCCC [DOTB, 1,2-dioleoyl-3-(4'-trimethylammonio)butanoyl-sn-glycerol] | no evidence of reduced cytotoxicity | – | – |
| CCCCCCCCCCCCCCCCCCN [Stearylamine] | great cytotoxicity | – | – |
